Test results as given in US11993801B2, “Base-modified nucleotides as substrates for TdT-based enzymatic nucleic acid synthesis” (Illumina Singapore Pte. Ltd., priority 2020, dated 2024).

What was measured:
TdT [1] = target: T1, TdT (Bos taurus, UniProt P06526); assay: TdT incorporation assay (extension of 21-nt oligonucleotide, denaturing TBE-Urea gel); type: biochemical; details: for yield of 22-nt oligo (+1 product) / yield of 23-nt oligo (+2 product) / yield of 24-nt oligo (+3 product): 40 μM nucleotide
T1 construct: purchased New England Biolab (Ipswich, MA)
Experimental: DNA oligonucleotide sequence used for primer extension assays is: ATTCAGGACGAGCCTCAGACC (SEQ ID NO: 1)
[…] The solution was then heated at 95° C. for 5 minutes to inactivate TdT. UV cleavage of the photolabile group was done using an 8 W UV lamp at 365 nm for 10 minutes.
(§1) Initrogen (Carlsbad, California) Novex™ TBE-Urea gel (15%) was pre-washed with 1×TBE running buffer to remove excess urea. Oligonucleotide samples (5 μL) were mixed with Novex™ TBE-Urea Sample Buffer (2×, 5 μL). The mixture was then heated at 95° C. for 5 minutes and loaded to the gel. Gels were run in a 1×TBE running buffer at up to 240 V until the bromophenol blue reached the bottom of the gel. The gel was then visualized using Gel Doc XR+ and analyzed using the gel analysis tool in the Bio-Rad (Hercules, California) Image Lab software.

TdT [2] = target: T1, TdT; assay: 2 cycle incorporation and deprotection; type: biochemical; details: nucleotide 20 μM, 7 minutes at 37° C., 8 W UV lamp at 365 nm for 10 minutes per cycle (FIG. 5)
Experimental: A 6-fluorescein-tagged 21-nt oligonucleotide (200 nM), 1× TdT buffer (NEB), TdT (2 U μL^−1) CoCl2 (NEB, 0.25 mM) and nucleotide (20 μM) in 500 μL solution was incubated at 37° C. for 7 minutes and quenched with EDTA (50 μL, 500 mM). The solution was concentrated using MilliporeSigma (Burlington, Massachusetts) Amicon Ultra-0.5 mL Centrifugal Filters (3 kDa) to a final volume of 30 μL. Sodium Acetate solution (10 μL, 3M, pH 5.0) was added to the concentrated solution and further purified using Zymo (Irvine, California) DNA Clean & Concentrator. UV cleavage of the photolabile group was done using an 8 W UV lamp at 365 nm for 10 minutes. The steps were then repeated to give the second incorporation.
as §1

TdT [3] = details: cited from earlier work
[4] = 200 nM 21-nt oligonucleotide, 1 U μL^−1 TdT, 15 minutes

T1 sequence (P06526 whole entry): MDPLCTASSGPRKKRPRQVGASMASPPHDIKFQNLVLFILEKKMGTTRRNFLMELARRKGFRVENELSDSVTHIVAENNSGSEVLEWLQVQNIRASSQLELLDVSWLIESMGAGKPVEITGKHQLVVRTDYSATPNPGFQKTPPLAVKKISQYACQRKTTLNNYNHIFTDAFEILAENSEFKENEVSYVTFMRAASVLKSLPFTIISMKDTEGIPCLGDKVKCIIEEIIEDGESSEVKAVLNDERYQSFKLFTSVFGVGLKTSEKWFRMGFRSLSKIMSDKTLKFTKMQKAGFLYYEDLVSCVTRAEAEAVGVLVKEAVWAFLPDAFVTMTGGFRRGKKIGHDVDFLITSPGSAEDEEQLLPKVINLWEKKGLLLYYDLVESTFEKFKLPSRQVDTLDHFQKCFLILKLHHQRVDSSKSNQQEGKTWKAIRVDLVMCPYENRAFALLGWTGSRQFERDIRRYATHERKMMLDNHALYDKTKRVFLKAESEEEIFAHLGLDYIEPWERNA

For N3-PEG12-dUTP [Compound 3], the “yield of 22-nt oligo (+1 product)” value (TdT [1]; [4]) was 94%, the “yield of 23-nt oligo (+2 product)” value (TdT [1]; 30 minutes of incubation) was 13% and the “yield of 24-nt oligo (+3 product)” value (TdT [1]; 30 minutes of incubation) was “not observed”.

For N3-PEG23-nitrobenzyl-dUTP [Compound 5], the “product after 2 cycles of incorporation and photocleavage of PEG moiety” value (TdT [2]) was “the desired 23-nt oligo”, the “incorporation by TdT” value (TdT [1]; nucleotide 20 μM (Lane 10, FIG. 4)) was “could be incorporated” and the “reaction time in which quantitative incorporation was achieved” value (TdT [1]; optimized conditions, incorporation time varied from 5 to 9 minutes (FIG. 3)) was at most 7 min.

In the case of N3-PEG4-dUTP [Compound 1], the “yield of 22-nt oligo (+1 product)” value (TdT [1]; [4]) was 55%, the “yield of 23-nt oligo (+2 product)” value (TdT [1]; [4]) was 41% and the “yield of 24-nt oligo (+3 product)” value (TdT [1]; [4]) was 4%. The “yield of 22-nt oligo (+1 product)” value (TdT [1]; 30 minutes of incubation) was 35%, the “yield of 23-nt oligo (+2 product)” value (TdT [1]; 30 minutes of incubation) was 56% and the “yield of 24-nt oligo (+3 product)” value (TdT [1]; 30 minutes of incubation) was 9%.

With N3-PEG24-dUTP [Compound 4] the “yield of 22-nt oligo (+1 product)” value (TdT [1]; [4]) was “quantitative”, the “yield of 22-nt oligo (+1 product)” value (TdT [1]; 30 minutes of incubation) was 98% and the “yield of 23-nt oligo (+2 product)” value (TdT [1]; 30 minutes of incubation) was 2%. The “yield of 24-nt oligo (+3 product)” value (TdT [1]; 30 minutes of incubation) was “not observed”.

With `NCC#Cc1cn([C@H]2C[C@H](O)[C@@H](COP(=O)(O)OP(=O)(O)OP(=O)(O)O)O2)c(=O)[nH]c1=O` [propargylamino-dUTP, reference compound] the “incorporation by TdT compared to that of dTTP” value (TdT [1]; Lanes 6-7, FIG. 2A) was “significantly slower”.

In the case of `CCCCSCCc1cn([C@H]2C[C@H](O)[C@@H](COP(=O)(O)OP(=O)(O)OP(=O)(O)O)O2)c2ncnc(N)c12` [7-[2-(butylsulfanyl)ethyl]-2′-deoxy-7-deazaadenosine 5′-O-triphosphate], the “number of incorporation events by TdT” value (TdT [3]) is given as “only a single incorporation event”.

With N3-PEG8-dUTP [Compound 2] the “yield of 22-nt oligo (+1 product)” value (TdT [1]; [4]) was 88%, the “yield of 23-nt oligo (+2 product)” value (TdT [1]; [4]) was 12% and the “yield of 24-nt oligo (+3 product)” value (TdT [1]; [4]) was “not observed”. For the same molecule, the “yield of 23-nt oligo (+2 product)” value (TdT [1]; 30 minutes of incubation) was 22% and the “yield of 24-nt oligo (+3 product)” value (TdT [1]; 30 minutes of incubation) was “not observed”.

In the case of `Cc1cn([C@H]2C[C@H](OCN=[N+]=[N-])[C@@H](COP(=O)(O)OP(=O)(O)OP(=O)(O)O)O2)c(=O)[nH]c1=O` [3′-O-azidomethyl-dTTP, reference compound], the “incorporation by TdT” value (TdT [1]; nucleotide 1 μM to 32 μM, 10 minutes of incubation at 37° C. (FIG. 4)) was “unable to incorporate”.

For `Nc1ncnc2c1c(CCSc1ccccc1)cn2[C@H]1C[C@H](O)[C@@H](COP(=O)(O)OP(=O)(O)OP(=O)(O)O)O1` [7-[2-(phenylsulfanyl)ethyl]-2′-deoxy-7-deazaadenosine 5′-O-triphosphate], the “number of incorporation events by TdT” value (TdT [3]) is listed as “only a single incorporation event”.
